In US8092805B2, “Dual inhibitors of HIV-1 gp-120 interactions” (priority 2004, dated 2012):

How the values were obtained:
[1] = system: gp120 interaction with CD4; conditions: Biorn et al. 2004; cited from earlier work
YU2 gp120 = biological target: T1, YU2 gp120 (Human immunodeficiency virus type 1 group M subtype B, UniProt P35961); assay type: binding, HIV-1; conditions: SPR
T1 construct: immobilized YU2 gp120
Method: Req. was calculated from 280 to 295 seconds in each concentration sensorgram and plotted against the concentration of the peptide.
Increasing concentrations of peptide were passed over an immobilized high density (5000 RU) surface. […] Buffer injections and controls were subtracted for all reported data. The equilibrium constant KD was calculated from the fit of direct binding to a steady state 1:1 binding model as a function of Req.

CC[C@H](C)[C@H](NC(=O)[C@@H](N)CCCNC(=N)N)C(=O)N[C@@H](CC(N)=O)C(=O)N[C@@H](CC(N)=O)C(=O)N[C@H](C(=O)N1CCC[C@H]1C(=O)N[C@@H](Cc1c[nH]c2ccccc12)C(=O)N[C@@H](CO)C(=O)N[C@@H](CCC(=O)O)C(=O)N[C@@H](C)C(=O)N[C@@H](CCSC)C(=O)N[C@@H](CCSC)C(=O)O)[C@@H](C)CC [Peptide 1]
inhibition of interaction of gp120 to CD4 (in words) [1]: micromolar affinity

RINNIAmpWSEAMM [Peptide 4]
direct interaction with YU2 gp120 (in words) (YU2 gp120): no effect on gp120
